Columns and labels:
[1] = tested on: K562 (lymphoma); test: alamarBlue viability assay, K562; assay type: cell-based; details: Homo sapiens, 72 hours
Method: (§1) Additionally, the following cancer cell lines were used:
(§2) Cells were grown in a humidified incubator at 37° C. in 5% CO2.
(§3) Cells were plated in 96-well plates at a density of 6000 cells/well in 100 μl medium 24 h before addition of drugs. […] To do so, a drugs-dilution plate at twice the screening concentrations was prepared. 72 hours later, alamarBlue (Biosource, Invitrogen) viability assay was performed following manufacturer's protocol. In brief, alamarBlue diluted in media was added to cells to have a 5% solution. Cells were incubated at 37° C., 3 hours and at room temperature, 30 min. Cells with no drug and, cells with no drug and lysed with triton X-100 were used as controls. Fluorescence was monitored at 530 nm excitation and 590 nm emission wavelengths. Results were quantified using Infinite F200 Microplate Reader (Tecan Group, Ltd.). EC50 were calculated as the dose of drugs required to inhibit cell growth by 50%, with Origin 7.0 computer program.

[2] = tested on: PC3 (prostate); test: alamarBlue viability assay, PC3; assay type: cell-based; details: 72 hours
Method: as §1, §2, §3

[3] = tested on: MDA-MB-468 (breast); test: alamarBlue viability assay, MDA-MB-468; assay type: cell-based; details: Homo sapiens, 72 hours
Method: as §1, §2
(§4) Cells were plated in 96-well plates at a density of 6000 cells/well in 100 μl medium 24 h before addition of drugs. They were then added in concentrations from 100 μM to 0.45 nM (each concentration in triplicate). To do so, a drugs-dilution plate at twice the screening concentrations was prepared. 72 hours later, alamarBlue (Biosource, Invitrogen) viability assay was performed following manufacturer's protocol. In brief, alamarBlue diluted in media was added to cells to have a 5% solution. Cells were incubated at 37° C., 3 hours and at room temperature, 30 min. Cells with no drug and, cells with no drug and lysed with triton X-100 were used as controls. Fluorescence was monitored at 530 nm excitation and 590 nm emission wavelengths. Results were quantified using Infinite F200 Microplate Reader (Tecan Group, Ltd.). EC50 were calculated as the dose of drugs required to inhibit cell growth by 50%, with Origin 7.0 computer program.

[4] = tested on: human breast cancer cell line MCF-7; test: alamarBlue viability assay, MCF-7; assay type: cell-based; details: MCF7, 72 hours, dose required to inhibit cell growth by 50%
Method: (§5) The human colon cancer cell line HCT116 and the human breast cancer cell line MCF-7 were from the American Type Culture Collection (ATCC; CCL-247 and HTB-22, respectively).
(§6) The HCT116 cell line was maintained in DMEM GlutaMAX (Invitrogen) supplemented with 10% fetal calf serum and the MCF7 cell line was maintained in RPMI1640 GlutaMAX (Invitrogen) containing 1 mM sodium piruvate and 10% fetal calf serum.
as §2, §3

[5] = tested on: MDA-MB-435P (breast); test: alamarBlue viability assay, MDA-MB-435P; assay type: cell-based; details: 72 hours
Method: as §1, §2, §4

[6] = tested on: human colon cancer cell line HCT116; test: alamarBlue viability assay, HCT116; assay type: cell-based; details: HCT-116, 72 hours, dose required to inhibit cell growth by 50%
Method: as §5, §6, §2, §3

[7] = target: T1, human recombinant HDAC 8 (Homo sapiens, UniProt Q9BY41); test: HDAC inhibition assay (Fluor de Lys), HDAC8; assay type: biochemical; details: inhibitor-protein incubation 0 hours, reaction 3 hours, 37° C.
T1 construct: purchased BPS Bioscience 50008
T1 sequence (Q9BY41 1-377): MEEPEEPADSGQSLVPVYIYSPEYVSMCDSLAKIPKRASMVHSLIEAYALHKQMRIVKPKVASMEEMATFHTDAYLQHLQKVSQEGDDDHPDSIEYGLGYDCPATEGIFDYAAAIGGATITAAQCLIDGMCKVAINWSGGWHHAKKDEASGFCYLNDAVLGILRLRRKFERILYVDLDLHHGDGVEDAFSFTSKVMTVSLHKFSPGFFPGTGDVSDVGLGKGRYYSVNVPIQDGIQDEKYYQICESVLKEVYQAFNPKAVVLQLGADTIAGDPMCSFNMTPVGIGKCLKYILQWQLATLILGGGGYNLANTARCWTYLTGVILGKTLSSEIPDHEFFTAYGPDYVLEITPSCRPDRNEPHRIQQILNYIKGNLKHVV
Method: (§7) All assays were carried out in the assay buffer: 50 mM Tris/Cl, pH 8.0, 137 mM NaCl, 2.7 mM KCl, 1 mM MgCl2).
(§8) Reactions were carried out in a 96-wells microplate (Corning 96 well Flat Bottom Non-binding surface (black) ref. 3651).
(§9) Potential inhibitors were added after five fold serial dilutions in DMSO. Final DMSO concentration in the assay microplate was kept at 2%.
(§10) Afterwards, human recombinant HDAC1, HDAC 2 or HDAC 8 were added up to […] respectively in assay buffer. When necessary, the mixture was incubated at room temperature prior the addition of substrate.
(§11) Total reaction volume of 50 μl. Human recombinant HDACs could be acquired from commercial sources (HDAC1: ref. #50001, BPS Bioscience™; HDAC 2: ref. #50002, BPS Bioscience™; HDAC 8: ref. #50008, BPS Bioscience™).
(§12) Reactions were stopped with 50 μl Developer (KI-105 Fluor de Lys™, BIOMOL®) with 2 μmol/L trichostatin A (TSA, final concentration 1 μmol/L). After 20 minutes at 37° C., fluorescence (excitation 360 nm, emission 460 nm) was measured using an Infinite F200 fluorimeter (Tecan). Background was determined in reactions using substrate in the absence of enzyme.
(§13) IC50 values are defined as the compound concentration at which the deacetylase activity is 50% inhibited. In these assays the following grading was used (I: IC50≦10 μM; II: 10 μM<IC50≦100 μM; III: 100 μM<IC50≦1 mM) The results obtained are summarized in Table 4.

[8] = target: T2, human recombinant HDAC1 (Homo sapiens, UniProt Q13547); test: HDAC inhibition assay (Fluor de Lys), HDAC1; assay type: biochemical; details: inhibitor-protein incubation 0 hours, reaction 3 hours, 25° C.
T2 construct: purchased BPS Bioscience 50001
T2 sequence (Q13547 whole entry): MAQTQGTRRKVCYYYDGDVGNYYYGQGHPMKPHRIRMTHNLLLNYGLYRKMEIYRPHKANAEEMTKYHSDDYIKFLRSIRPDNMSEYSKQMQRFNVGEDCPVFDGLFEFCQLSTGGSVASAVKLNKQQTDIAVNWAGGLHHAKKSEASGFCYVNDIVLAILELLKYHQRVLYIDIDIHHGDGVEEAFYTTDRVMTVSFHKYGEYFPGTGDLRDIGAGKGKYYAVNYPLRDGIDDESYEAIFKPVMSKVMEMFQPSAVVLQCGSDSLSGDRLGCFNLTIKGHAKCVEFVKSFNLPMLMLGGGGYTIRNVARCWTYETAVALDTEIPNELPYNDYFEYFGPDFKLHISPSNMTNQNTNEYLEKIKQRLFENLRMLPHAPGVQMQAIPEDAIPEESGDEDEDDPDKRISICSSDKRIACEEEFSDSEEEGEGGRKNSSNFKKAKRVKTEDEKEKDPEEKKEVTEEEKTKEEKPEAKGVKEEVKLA
Method: as §7, §8, §9, §10, §11, §12
(§14) IC50 values are defined as the compound concentration at which the deacetylase activity is 50% inhibited. […]

[9] = target: T3, human recombinant HDAC 2 (Homo sapiens, UniProt Q92769); test: HDAC inhibition assay (Fluor de Lys), HDAC2; assay type: biochemical; details: inhibitor-protein incubation 2 hours, reaction 1 h 30 min, 37° C.
T3 construct: purchased BPS Bioscience 50002
T3 sequence (Q92769 whole entry): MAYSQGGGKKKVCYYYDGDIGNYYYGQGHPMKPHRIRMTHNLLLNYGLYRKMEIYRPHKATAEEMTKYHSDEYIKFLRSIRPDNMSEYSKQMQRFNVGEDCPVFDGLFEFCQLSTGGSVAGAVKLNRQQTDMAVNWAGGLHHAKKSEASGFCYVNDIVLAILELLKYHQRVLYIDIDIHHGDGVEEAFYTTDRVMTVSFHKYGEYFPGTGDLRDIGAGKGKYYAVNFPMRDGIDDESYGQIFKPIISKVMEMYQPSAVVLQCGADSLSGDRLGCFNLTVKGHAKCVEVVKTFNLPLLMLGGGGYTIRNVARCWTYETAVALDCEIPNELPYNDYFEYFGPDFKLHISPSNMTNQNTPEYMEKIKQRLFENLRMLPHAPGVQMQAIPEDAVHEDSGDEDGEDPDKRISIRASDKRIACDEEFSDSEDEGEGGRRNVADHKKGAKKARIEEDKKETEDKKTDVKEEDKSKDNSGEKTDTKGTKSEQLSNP
Method: as §7, §8, §9, §10, §11, §12, §13

[10] = tested on: HDACs; test: HDAC inhibition assays, isoform not specified; assay type: biochemical, human; details: result in words
Method: as §7, §8, §9, §10, §11, §12, §14

[11] = tested on: SK-mel-98 (melanoma); test: alamarBlue viability assay, SK-mel-98; assay type: cell-based; details: 72 hours
Method: as §1, §2, §4

[12] = tested on: U87 (glioblastoma); test: alamarBlue viability assay, U87; assay type: cell-based; details: 72 hours
Method: as §1, §2, §4

[13] = tested on: HepG2 (hepatocarcinoma); test: alamarBlue viability assay, HepG2; assay type: cell-based; details: Homo sapiens, 72 hours
Method: as §1, §2, §4

[14] = tested on: Hep3B (hepatocarcinoma); test: alamarBlue viability assay, Hep3B; assay type: cell-based; details: Homo sapiens, 72 hours
Method: as §1, §2, §3

[15] = tested on: T98G (glioblastoma); test: alamarBlue viability assay, T98G; assay type: cell-based; details: Homo sapiens, 72 hours
Method: as §1, §2, §4

[16] = tested on: NP-9 (pancreas); test: alamarBlue viability assay, NP-9; assay type: cell-based; details: 72 hours
Method: The NP-9 cell line from pancreas, was provided by Dr. R. Alemany from Translational Research Laboratory (Institut Catala d'Oncologia). (cf., Cascallò, M. et al., “Ras-dependent Oncolysis with an Adenovirus VAI mutant”, Cancer Research, 2003, 63, 5544-5550). This cells was maintained in DMEM:F12 (Invitrogen) supplemented with 10% fetal calf serum (Invitrogen), L-glutamine […] (Invitrogen), pyruvate […] (Invitrogen).
as §2
as §4, with “EC50 were calculated as the dose of drugs required to inhibit cell growth by 50%, with Origin 7.0 computer program.” left out

[17] = tested on: A549 (lung); test: alamarBlue viability assay, A549; assay type: cell-based; details: Homo sapiens, 72 hours
Method: as §1, §2, §4

EC50 [1] [µM] | EC50 [2] [µM] | EC50 [3] [µM] | EC50 [4] [µM] | EC50 [5] [µM] | EC50 [6] [µM] | IC50 [7] [µM] | IC50 [8] [µM] | IC50 [9] [µM] | EC50 [11] [µM] | EC50 [12] [µM] | EC50 [13] [µM] | EC50 [14] [µM] | EC50 [15] [µM] | EC50 [17] [µM] | Structure (SMILES) | inhibition of the target of these compounds (i.e. HDACs) [10] | EC50 [16] [µM]
472 | 364 | 364 | 1060 | 242 | 636 | 100 to 1000 |  |  |  |  |  |  |  |  | O=C(O)C(CCc1ccccc1)Cc1ccccc1 (stereo not shown) [Example 9, 2-Benzyl-4-phenylbutanoic acid] |  | 
 |  |  | 268 | 253 | 177 | 10 to 100 | 100 to 1000 | 100 to 1000 |  |  |  |  |  |  | O=C(O)C(CCCc1ccccc1)CCc1ccccc1 (stereo not shown) [Example 11, 5-Phenyl-2-(2-phenylethyl)pentanoic acid] |  | 
 |  |  | 5000 |  | 5000 | 100 to 1000 |  |  |  |  |  |  |  |  | CNS(=O)(=O)c1ccc(CC(CCc2ccccc2)C(=O)O)cc1 (stereo not shown) [Example 12, 2-{4-[(methylamino)sulfonyl]benzyl}-4-phenylbutanoic acid] | clear inhibition | 
157 | 168 | 55.4 |  | 125 | 98 | 10 to 100 |  | 10 to 100 | 170 | 105 | 140 | 99.7 | 118 | 104 | Cc1ccc(NS(=O)(=O)c2cccc(CCCC(CCc3ccccc3)C(=O)O)c2)cc1 (stereo not shown) [Example 36] |  | 41
 |  |  |  |  | 644 | 10 to 100 | 100 to 1000 | 100 to 1000 |  |  |  |  |  |  | CNS(=O)(=O)c1cccc(CCCC(CCc2ccccc2)C(=O)O)c1 (stereo not shown) [Example 41, 5-(3-[(Methylamino)sulfonyl]phenyl)-2-(2-phenylethyl)pentanoic acid] |  | 
2.55 | 336 | 87 |  | 210 | 75 | 10 to 100 |  | 100 to 1000 |  |  |  |  |  |  | COc1ccc(NS(=O)(=O)c2cccc(CCCC(CCc3ccccc3)C(=O)O)c2)cc1OC (stereo not shown) [Example 43, 5-(3-{[(3,4-dimethoxyphenyl)amino]sulfonyl}phenyl)-2-(2-phenylethyl)pentanoic acid] |  | 
 | 55.6 | 99.8 |  | 52 | 54 | ≤ 10 |  | 10 to 100 | 78.3 | 43 | 103 | 107 | 118 | 62.3 | CCc1ccc(CCC(CCCc2ccc(S(=O)(=O)Nc3ccccc3)cc2)C(=O)O)cc1 (stereo not shown) [Example 46, 5-[4-(Anilinosulfonyl)phenyl]-2-[2-(4-ethylphenyl)ethyl]pentanoic acid] |  | 102

Reference: patent US20110105544A1, “CARBOXYLIC DERIVATIVES FOR USE IN THE TREATMENT OF CANCER” (priority 2007, published 2011)
